Results: ChEMBL document CHEMBL1121763, “2,3-Dihydrobenzofuran-2-ones: a new class of highly potent antiinflammatory agents” (J Med Chem, 1981)

Assays:
[1] = system: Rattus norvegicus; assay: Inhibition of adjuvant-induced polyarthritis in rat following p.o. administration.; format: functional; conditions: po
[2] = species: Rattus norvegicus; assay: animal or person; format: functional; conditions: po, 3 h
Description: Compound administered perorally for inhibition of carrageenan induced paw edema after 3h in rat

[3] = molecular target: Cyclooxygenase (Bos taurus)

Compound `CC1C(=O)Oc2cc(C3CCCCC3)ccc21` (configuration not stated) has an ED50 [1] of 2.5 mg/kg, an ED50 [2] of 0.8 mg/kg and an IC50 [3] of 400 nM.

For `O=C1Cc2ccc(-c3ccccc3)cc2O1`, the ED50 [1] was 20 mg/kg, the ED50 [2] was 6 mg/kg and the IC50 [3] was 700 nM.

In the case of `O=C1Cc2cc(C3CCCCC3)ccc2O1`, the ED50 [2] is reported as > 60 mg/kg and the IC50 [3] is reported as 10000 nM.

Compound `O=C1Cc2cc(Cl)c(-c3ccccc3)cc2O1` has an ED50 [1] of 3 mg/kg, an ED50 [2] of 1 mg/kg and an IC50 [3] of 80 nM.

For `O=C1Cc2ccccc2O1`, the ED50 [2] was > 60 mg/kg and the IC50 [3] was > 100000 nM.

`O=C1Cc2cccc(C3CCCCC3)c2O1` was tested, and the ED50 [1] was > 30 mg/kg, the ED50 [2] was > 60 mg/kg and the IC50 [3] was 100000 nM.

In the case of `O=C1Cc2cc(Br)c(C3CCCCC3)cc2O1`, the ED50 [1] is reported as 7 mg/kg, the ED50 [2] is reported as 2 mg/kg and the IC50 [3] is reported as 30 nM.

`O=C1Cc2ccc(C3CCCCC3)cc2O1` gave an ED50 [1] of 20 mg/kg, an ED50 [2] of 1 mg/kg and an IC50 [3] of 800 nM.

Work on `O=C1Cc2cc(Cl)c(C3CCCCC3)c(Cl)c2O1` yielded an ED50 [1] of 30 mg/kg, an ED50 [2] of 2 mg/kg and an IC50 [3] of 1000 nM.

`CC(C)Cc1ccc2c(c1)OC(=O)C2` was tested, and the ED50 [1] was > 40 mg/kg, the ED50 [2] was 8 mg/kg and the IC50 [3] was 3000 nM.

`O=C1Cc2cc([N+](=O)[O-])c(C3CCCCC3)cc2O1` gave an ED50 [1] of 4 mg/kg, an ED50 [2] of 6 mg/kg and an IC50 [3] of 500 nM.

`O=C1Cc2cc(O)c(-c3ccccc3)cc2O1` was tested, and the ED50 [2] was > 30 mg/kg and the IC50 [3] was 50000 nM.

In the case of `O=C1Cc2ccc(C3CCCCC3)c(Br)c2O1`, the ED50 [1] is reported as > 30 mg/kg, the ED50 [2] is reported as 36 mg/kg and the IC50 [3] is reported as 3000 nM.

For `CC1C(=O)Oc2cc(-c3ccccc3)c(Cl)cc21` (configuration not stated), the ED50 [1] was 2 mg/kg, the ED50 [2] was 0.3 mg/kg and the IC50 [3] was 80 nM.

`COc1cc2c(cc1-c1ccccc1)OC(=O)C2` was tested, and the ED50 [1] was 30 mg/kg, the ED50 [2] was 30 mg/kg and the IC50 [3] was 10000 nM.

For `O=C1Cc2ccc(C3CCCC3)cc2O1`, the ED50 [1] was 60 mg/kg, the ED50 [2] was 30 mg/kg and the IC50 [3] was 10000 nM.

`Cc1cc2c(cc1C1CCCCC1)OC(=O)C2` gave an ED50 [1] of 1.5 mg/kg, an ED50 [2] of 3 mg/kg and an IC50 [3] of 100 nM.

For `O=C(O)Cc1ccccc1Nc1c(Cl)cccc1Cl` [DICLOFENAC], the ED50 [1] was 2 mg/kg and the ED50 [2] was 3 mg/kg.

`CCC1C(=O)Oc2cc(-c3ccccc3)ccc21` (configuration not stated) was tested, and the ED50 [1] was > 30 mg/kg, the ED50 [2] was 25 mg/kg and the IC50 [3] was 50000 nM.

With `Cc1cc2c(cc1C1CCCCC1)OC(=O)C2C` (configuration not stated) the ED50 [1] was < 3 mg/kg, the ED50 [2] was 6 mg/kg and the IC50 [3] was 100 nM.

`O=C1Cc2cc(Cl)c(C3CCCCC3)cc2O1` [CLOFURAC] was tested, and the ED50 [1] was 1 mg/kg, the ED50 [2] was 0.5 mg/kg and the IC50 [3] was 50 nM.

With `CC1C(=O)Oc2cc(-c3ccccc3)ccc21` (configuration not stated) the ED50 [1] was 14 mg/kg, the ED50 [2] was 2.5 mg/kg and the IC50 [3] was 500 nM.

With `COc1ccc2c(c1)c(CC(=O)O)c(C)n2C(=O)c1ccc(Cl)cc1` [INDOMETHACIN] the ED50 [1] was 0.4 mg/kg and the ED50 [2] was 2 mg/kg.

Work on `CC1C(=O)Oc2cc(C3CCCCC3)c(Cl)cc21` (configuration not stated) yielded an ED50 [1] of 1 mg/kg, an ED50 [2] of 0.3 mg/kg and an IC50 [3] of 70 nM.
